Reference: patent US20110268757A1, “USE OF PHENOL-SOLUBLE MODULINS FOR VACCINE DEVELOPMENT” (INSTITUT PASTEUR, priority 2008, published 2011)

Assays:
[1] = system: bone marrow derived dendritic cells; assay: Binding of CFSE labeled peptides to bone marrow derived dendritic cells (flow cytometry); assay type: cell-based, mouse; settings: 20 μM peptide, fixed cells, 30 minutes at 4° C.
Procedure: Dendritic cells were grown from bone marrow cells. After lysing the erythrocytes with ACK lysis buffer, the cells were washed and lymphocytes and granulocytes were removed by means of incubation with a mixture of antibodies against CD4 (GK1; ATCC, Manassas, Va.), CD8 (53.6.72; ATCC), Ly-6G/Gr1 (BD-Pharmingen; San Diego Calif.) and CD45R/B220 (BD-Pharmingen), followed by rabbit supplement. The remaining cells grew in 12 culture plates in complete medium with 10^6 cells/ml supplemented with 20 ng/ml of mGM-CSF and 20 ng/ml of mIL-4 (both from Peprotech; London, GB). Every 2 days the medium was substituted with fresh medium containing cytokines. On day 7, non-adherent dendritic cells were collected, and cultured in the presence or absence of 50 μM of modulin peptides or of 1 μg/ml of LPS (Sigma) and incubated for 48 hours at 37° C. and 5% CO2. After this period, the cells were isolated and incubated with anti IAb, CD54 and CD86 antibodies (Pharmingen). In parallel experiments, the dendritic cells were incubated with the indicated stimuli for 16 hours, after which the expression of the messenger RNA for the p40 molecules of IL-12 and of TNF-α was analyzed.

[2] = system: splenocytes from C57BL/6 TLR2KO mice; assay: Binding of CFSE labeled peptides to fixed splenocytes from TLR2 KO mice (flow cytometry); assay type: cell-based, mouse; settings: 20 μM peptide, 30 minutes at 4° C.
Procedure: Mouse splenocytes were purified from C57BL/6 TLR2KO mice after homogenizing the spleen. […] 5×10^5 fixed splenocytes were incubated in the presence of 20 μM CFSE γMod-SIINFEKL, CFSE αMod-SIINFEKL or CFSE-OVA (235-264) control peptide to show the binding specificity.

[3] = system: CD4, CD8, CD11c, CD19, F480 or GR1(CD117) positive splenocytes; settings: total splenocytes, double staining, 20 μM
Procedure: (§2) Binding assays were carried out using either splenocytes (FIG. 1, panels A B, D, E and G) or bone marrow derived dendritic cells (FIG. 1, panels C and F). The cells were fixed by means of an incubation with a 0.4% glutaraldehyde solution for 15 minutes at 4° C. 5×10^5 fixed cells were incubated in the presence of 20 μM CFSE αMod-[sequence] (FIG. 1, panels A, B and C), or CFSE γMod-[sequence] (FIG. 1, panels D, E, F and G). In some assays, and to study the specificity of CFSE labeled peptide binding, these incubations were carried out in the presence or absence of the unlabeled peptides αMod-[sequence], γMod-[sequence] or [sequence] (100 μM) (panels B and E). Also, we carried out binding assays using the CFSE labeled peptide CFSE-OVA (235-264) as a negative control (FIG. 1, panels A, C, D and F). After 30 minutes of incubation at 4° C., two washings with PBS were carried out and the performed labeling was analyzed by flow cytometry. In some experiments (FIG. 1G), double staining was carried out using anti-CD4, CD8, CD11c, CD19, F480 or GR1(CD117) antibodies labeled with phycoerythrin (Pharmingen) together with the CFSE-γMod-[sequence] peptide. In these cases, the labeling with the specific antibodies was carried out before fixing the cells with glutaraldehyde.

[4] = system: EG7OVA tumor cells; assay: Protection against the challenge with EG7OVA tumor cells after immunization; assay type: in vivo, C57BL/6 mice; settings: 5 nmoles peptide with poly I:C
Procedure: Protection against the challenge with EG7 tumor cells expressing the OVA protein C57BL6 mice were subcutaneously immunized with 5 nmol of the indicated peptides in combination with poly I:C. […] In some experiments, mice were first challenged s.c with 5×10^5 cells and when tumors reached 5 mm in diameter they were treated with the indicated peptide. The tumor growth was controlled with a gage. Mice were sacrificed when the tumor reached a volume greater than 4 cm^3. Kaplan-Meier plot of mice survival for each immunogen is depicted.

[5] = system: T cells from OT-1 transgenic mice; assay: Antigen presentation assay: proliferation of OT-1 T cells (tritiated thymidine); assay type: cell-based, mouse; settings: dendritic cells incubated with 10 μM peptide
Procedure: Dendritic cells derived from bone marrow were cultured in the presence or absence of 10 μM of the indicated peptides (FIG. 3). Forty hours later, the cells were washed and distributed in 96-well plates at different concentrations and incubated in the presence of 10^5 T cells/well obtained from OT-1 transgenic mice (which express a specific T receptor for the SIINFEKL peptide of ovalbumin. Seventy-two hours later, tritiated thymidine was added to the cultures and six hours later the cells were harvested and the incorporated thymidine was analyzed in a scintillation counter (Topcount Packard).

[6] = system: mouse splenocytes; assay: Binding of CFSE labeled peptides to glutaraldehyde-fixed splenocytes (flow cytometry); assay type: cell-based; settings: unlabeled competitor 100 μM
Procedure: as §2

[7] = system: IFNγ-producing cells in response to the SIINFEKL peptide; assay: ELISPOT of IFNγ-producing cells specific for SIINFEKL in TLR2 KO mice; assay type: in vivo; settings: mice lacking TLR2, 5 nmoles peptide with 50 μg poly I:C, seven days; level similar to wild type
Procedure: (§1) For the analysis of IFNγ-producing cells in the presence of SIINFEKL and induced in vivo by the immunizations, ELISPOT experiments were carried out using a BD-pharmingen kit (San Diego, Calif.) and according to the instructions of the manufacturer, in the same manner as in Example 3.

[8] = system: splenocytes pulsed with the SIINFEKL peptide; assay: In vivo killing assay against SIINFEKL-pulsed splenocytes after immunization; design: species or system C57BL/6 mice; settings: for specific cytotoxic activity against SIINFEKL (in vivo killing): 5 nmoles peptide plus 50 μg poly I:C, seven days after immunization; for effect of combination with TLR3 ligand on activation of the cytotoxic response (in vivo killing): 5 nmoles peptide with 50 μg TLR3 ligand (poly I:C); for effect of combination with TLR3 ligand on activation of the cytotoxic response (in vivo killing) / effect of combination with TLR9 ligand on activation of the cytotoxic response (in vivo killing) / cytotoxic T responses against SIINFEKL target cells (in vivo killing): seven days; for effect of combination with TLR9 ligand on activation of the cytotoxic response (in vivo killing): 5 nmoles peptide with 50 μg TLR9 ligand (CpG); for cytotoxic T responses against SIINFEKL target cells (in vivo killing): Example 4, C57BL/6 wild type mice, 5 nmoles peptide with 50 μg poly I:C
Procedure: C57BL6 mice were intravenously immunized intravenously with 5 nmoles of the indicated peptides in combination with 50 μg of the TLR3 ligand poly I:C. In some cases, the peptides were immunized in the presence of TLR2 (peptidoglycan), TLR4 (LPS or the EDA protein) or TLR9 (CpG) ligand. […] On the following day, the mice were sacrificed and the splenocytes were analyzed by flow cytometry to quantify the number of cells with high CFSE labeling with respect to the cells with low CFSE labeling. Thus, the percentage of cell lysis of the cells incubated with the cytotoxic SIINFEKL peptide can be calculated in an experiment called in vivo killing.
C57BL6 wild type mice and knockout mice were immunized for TLR2 with the aim of studying the dependence on TLR2 in the immunostimulating capacity of modulin-derived peptides. Thus, different mice were injected with 5 nmoles of the indicated peptides or with PBS in combination with 50 μg of the TLR3 ligand poly I:C. […] On the following day, the mice were sacrificed and the splenocytes were analyzed by flow cytometry to quantify the number of cells with high CFSE labeling with respect to the cells with low CFSE labeling in the same manner as in Example 3.

[9] = system: splenocytes pulsed with the SIINFEKL peptide; assay: In vivo killing assay against SIINFEKL-pulsed splenocytes in TLR2 KO mice; settings: mice lacking TLR2, 5 nmoles peptide with 50 μg poly I:C, seven days; level similar to wild type
Procedure: C57BL6 wild type mice and knockout mice were immunized for TLR2 with the aim of studying the dependence on TLR2 in the immunostimulating capacity of modulin-derived peptides. Thus, different mice were injected with 5 nmoles of the indicated peptides or with PBS in combination with 50 μg of the TLR3 ligand poly I:C. Seven days after the immunization, the mice were intravenously injected with a mixture of 5×10^6 splenocytes, half of which had been previously labeled with a dose of 0.25 μM C and the other half with 2.5 μM CFSE and the SIINFEKL peptide (10 μg/ml). On the following day, the mice were sacrificed and the splenocytes were analyzed by flow cytometry to quantify the number of cells with high CFSE labeling with respect to the cells with low CFSE labeling in the same manner as in Example 3.

[10] = system: EG7OVA tumor cells; assay: Treatment of mice bearing established EG7OVA tumors; assay type: in vivo, C57BL/6 mice; settings: EG7OVA tumors of 5 mm diameter at treatment, peptide plus poly I:C, p<0.05
Procedure: Protection against the challenge with EG7 tumor cells expressing the OVA protein C57BL6 mice were subcutaneously immunized with 5 nmol of the indicated peptides in combination with poly I:C. Seven days after the immunization, the mice were subcutaneously injected with 5×10^5 or with 5×10^7 EG7OVA cells. In some experiments, mice were first challenged s.c with 5×10^5 cells and when tumors reached 5 mm in diameter they were treated with the indicated peptide. The tumor growth was controlled with a gage. Mice were sacrificed when the tumor reached a volume greater than 4 cm^3. Kaplan-Meier plot of mice survival for each immunogen is depicted.

[11] = system: IFNγ-producing cells in response to the SIINFEKL peptide; assay: ELISPOT of IFNγ-producing cells specific for SIINFEKL after immunization; assay type: in vivo, C57BL/6 mice; settings: for IFNγ-producing cells in response to SIINFEKL (ELISPOT): 5 nmoles peptide plus 50 μg poly I:C, seven days after immunization; for IFN-γ-producing cells specific for SIINFEKL (ELISPOT): Example 4, C57BL/6 wild type mice, 5 nmoles peptide with 50 μg poly I:C, seven days
Procedure: C57BL6 mice were intravenously immunized intravenously with 5 nmoles of the indicated peptides in combination with 50 μg of the TLR3 ligand poly I:C. In some cases, the peptides were immunized in the presence of TLR2 (peptidoglycan), TLR4 (LPS or the EDA protein) or TLR9 (CpG) ligand. Seven days after the immunization, the mice were intravenously injected with a mixture of 5×10^6 splenocytes, half of which had been previously labeled with a dose of 0.25 μM C and the other half with 2.5 uM CFSE and the SIINFEKL peptide (10 μg/ml). On the following day, the mice were sacrificed and the splenocytes were analyzed by flow cytometry to quantify the number of cells with high CFSE labeling with respect to the cells with low CFSE labeling. Thus, the percentage of cell lysis of the cells incubated with the cytotoxic SIINFEKL peptide can be calculated in an experiment called in vivo killing.
For the analysis of IFNγ-producing cells specific for SIINFEKL and induced in vivo by the immunizations, ELISPOT experiments were carried out using a BD-pharmingen kit (San Diego, Calif.) and according to the instructions of the manufacturer. Briefly, the plates (Multiscreen HTS, Millipore, Bedford, Mass.) incubated overnight with the anti-IFNγ antibody were blocked for 2 hours with HL-1 medium (Biowhittaker, Verviers, Belgium) containing 10% horse serum. Thus, 5×10^5 splenocytes were incubated in triplicate in the absence or in the presence of the antigens at 37° C. and 5% CO2. On the following day, the plates were washed with PBS and incubated with biotinylated anti-IFNγ antibody (2 mg/ml). After two hours, the plates were washed and incubated with a 1/100 dilution of streptavidin-peroxidase. One hour later, the wells were washed and developed using the AEC substrate set (BD-Pharmingen). The colorimetric reaction was stopped with distilled water and the number of spots was quantified using an ELISPOT automatic reader (CTL, Aalen, Germany).
as §1

[12] = system: IFN-γ producing cells in the presence of the peptide E7(49-57); assay: ELISPOT of IFN-γ producing cells against peptide E7(49-57) after immunization; assay type: in vivo, C57BL6 mice; settings: 5 nmoles peptide with 50 μg poly I:C, seven days after immunization
Procedure: C57BL6 mice were intravenously immunized with 5 nmoles of the indicated peptides in combination with 50 μg of the TLR3 ligand poly I:C. For the analysis of the IFN-γ producing cells in the presence of the peptide E7(49-57) and induced in vivo by the immunizations, the animals were sacrificed 7 days after the immunizations and ELISPOT experiments were conducted using a BD-pharmingen kit (San Diego, Calif.) as indicated above and using peptide E7(49-57) as an antigen.

[13] = system: TC-1 tumor cells (expressing the E7 protein of the HPV-16 virus); assay: Treatment of mice carrying TC1 subcutaneous tumors; assay type: in vivo, C57B/6 mice; settings: TC1 tumors of 8 mm diameter, i.v. peptide plus 50 μg/ml poly I:C, second immunization seven days later
Procedure: The C57B/6 mice were subcutaneously injected with 5×10^5 TC-1 tumor cells (expressing the E7 protein of the HPV-16 virus). After 25 days, when the tumor reaches a diameter of 8 mm, the mice are intravenously treated with PBS (B), with peptide E7(49-57) plus 50 μg/ml poly I:C(C), or with peptide αMod-E7(49-57) plus 50 μg/ml poly I:C (D). Seven days later, the mice received a second immunization of the same immunogens. The tumor size, presented as the average of two perpendicular diameters, was measured at regular intervals using a gauge. The number of tumor-free mice relative to the total number of animals per group is included for each treatment.

Substance | proliferation of OT-1 T lymphocytes stimulated by peptide-incubated dendritic cells [5] | IFN-γ-producing cells specific for SIINFEKL (ELISPOT) [7] | specific cytotoxic activity against SIINFEKL (in vivo killing) [8] | effect of combination with TLR3 ligand on activation of the cytotoxic response (in vivo killing) [8] | effect of combination with TLR9 ligand on activation of the cytotoxic response (in vivo killing) [8] | cytotoxic T responses against SIINFEKL target cells (in vivo killing) [8] | cytotoxic T responses against SIINFEKL target cells (in vivo killing) [9] | IFNγ-producing cells in response to SIINFEKL (ELISPOT) [11] | IFN-γ-producing cells specific for SIINFEKL (ELISPOT) [11] | further results
CFSE-MAADIISTIGDLVKWIIDTVNKFKKSIINFEKL [CFSE-γMod-SIINFEKL] | – | – | – | – | – | – | – | – | – | binding of CFSE labeled peptide to bone marrow derived dendritic cells [1]: able to stain bone marrow derived dendritic cells; binding of CFSE labeled peptide to the surface of TLR2 KO splenocytes [2]: still retained the capacity to bind; percentage of CD4+ cells stained with the CFSE peptide [3]: approximately 24.4%; percentage of CD8+ cells stained with the CFSE peptide [3]: ~17.8%; percentage of CD11c cells stained with the CFSE peptide [3]: ~62.1%; percentage of CD19 cells stained with the CFSE peptide [3]: ~52.8%; percentage of F418 cells stained with the CFSE peptide [3]: ~66.2%; percentage of GR1+ cells stained with the CFSE peptide [3]: ~27.3%
MAADIISTIGDLVKWIIDTVNKFKKSIINFEKL [γMod-SIINFEKL] | significantly better than OVA (235-264) peptide | also observed | strong cytotoxic responses | synergistic effect | synergistic effect | capable of inducing cytotoxic T responses | also observed | production of IFNγ | is induced | protection from tumor growth after EG7OVA challenge ([4]; 7×10^5 EG7OVA cells s.c. seven days after immunization (FIG. 5B)): protected the mice from tumor growth; reduction of the bright fluorescence of CFSE γMod-SIINFEKL on splenocytes by unlabeled peptide ([6]; 20 μM CFSE γMod-SIINFEKL): reduced the bright fluorescence; mice rejecting the established tumor [10]: about 38%
MADVIAKIVEIVKGLIDQFTQKRAHYNIVTF [αMod-E7(49-57)] | – | – | – | – | – | – | – | – | – | response against the cytotoxic peptide E7 (49-57) (ELISPOT, IFN-γ producing cells) [12]: induces a specific cytotoxic response; number of tumor-free (cured) mice relative to the total number of mice [13]: 11 of 11
MADVIAKIVEIVKGLIDQFTQKSIINFEKL [αMod-SIINFEKL] | significantly better than OVA (235-264) peptide | also observed | strong cytotoxic responses | synergistic effect | synergistic effect | capable of inducing cytotoxic T responses | also observed | production of IFNγ | is induced | protection from tumor growth after EG7OVA challenge ([4]; 5×10^5 EG7OVA cells s.c. seven days after immunization (FIG. 5A)): protected the mice from tumor growth; inhibition of the CFSE αMod-SIINFEKL signal on splenocytes by unlabeled peptide ([6]; 20 μM CFSE αMod-SIINFEKL): significantly inhibited
